The values that follow come from patent US20030157541A1, “Regulation of human CycLT2-like GPCR protein” (Bayer Aktiengesellschaft, priority 2000, published 2003).

The IC50 is the concentration at which inhibition is half-maximal. Low readings indicate higher potency, high ones lower potency.

For the experiment, the target named is T1, CysLT2 (Homo sapiens, UniProt Q9NS75).
T1 construct: expressed in transfected cells; membranes used
T1 sequence (Q9NS75 1-346): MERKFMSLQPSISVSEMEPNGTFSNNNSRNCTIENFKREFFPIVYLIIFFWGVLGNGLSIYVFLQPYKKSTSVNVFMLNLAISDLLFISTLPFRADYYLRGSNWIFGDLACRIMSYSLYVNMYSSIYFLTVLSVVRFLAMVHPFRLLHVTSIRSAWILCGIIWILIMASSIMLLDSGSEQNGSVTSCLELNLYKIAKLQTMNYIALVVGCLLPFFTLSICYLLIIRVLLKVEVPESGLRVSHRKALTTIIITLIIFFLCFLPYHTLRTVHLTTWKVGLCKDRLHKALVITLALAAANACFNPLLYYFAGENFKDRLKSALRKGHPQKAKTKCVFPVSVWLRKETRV
In words: Competition for [^3H]LTD4-specific binding to CysLT2 membranes. The procedure: Membrane preparation for CysLT2 receptor binding assay. Peak stable cells transformed with CysLT2 expression vector were maintained in D-MEM supplemented with 10% FCS and 2 μg/ml of puromycin. Cells were collected and kept at −80° C. until membrane preparation. Frozen cells were suspended in cold membrane preparation buffer (50 mM Tris-HCl pH 7.5, protease inhibitor mixture(#1873580, Roche)), and disrupted with Polytron (Cat.#PT10-35, Kinematica AG, Switzerland). Disrupted cells were centrifuged at 500×g for 5 minutes at 4° C. to remove the nuclear fraction, and supernatants were applied to high speed centrifugation (45,000×g, 15 minutes, 4° C.) to precipitate membrane fraction. After the supernatant was removed, membrane preparation buffer were added to the pellet and homogenized gently on ice. Glycerol (final conc.;10%) and bovine serum albumin (final conc.:0.5%, Cat#A-3059, Sigma) were added to the membrane suspension as stabilizer. Membrane suspension was then divided into small vials and frozen in liquid nitrogen. After 1 hour freezing, vials were kept at −80° C. until use.
At the end of the binding reaction, 100 μl of the reaction mixture was transferred to a 96-well filtration plate (Cat.#MAFB-N0B, Millipore), and washed 3 times with 200 μl/well of cold binding buffer. […] The specific binding (total binding—non-specific binding) was measured by liquid scintillation counter (TopCount™, Packard) and expressed as the relative binding (%) in the figure.
Inhibition assay using several antagonists.

Regarding `CCOC(=O)c1cn(-c2ccc(C3=CC(F)(F)C3(F)F)cc2)c2cc(F)c(F)cc2c1=O` [Bay y9773], the concentration for half-maximal inhibition (IC50) is 2000 nM. The same measure, in the same setting: with `O=C(O)CCCNC(=O)c1cc(C(=O)O)ccc1OCCCc1ccc(OCCCCOc2ccccc2)cc1` [Bay y8934] the figure was 1000 nM.

`CCCCC/C=C\C[C@@H](O)/C=C/C=C/C=C\[C@@H](O)CCCC(=O)O` [LTB4, Leukotriene B4]: the “inhibition of [^3H]LTD4 binding to CysLT2” value (at concentrations up to 10^−6 M, 0.4 nM [^3H]-labeled LTD4) was “did not inhibit”.
